Measured values reported in patent US20120245137A1 (Zalicus Pharmaceuticals Ltd., priority 2009, published 2012).

Experiments:
Format in all cases: cell-based
[1] = molecular target: N-type calcium channel subunits (α1B, α2δ, and β3a) (Homo sapiens, UniProt Q00975); experiment: Block of Cav2.2 channel, whole cell voltage clamp, manual and PatchXpress; details: Table 5; table follows Assay Example 3 (whole cell voltage clamp / PatchXpress); assay not given
In short: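 Percent block taken as current amplitude ratio with versus without compound, applied in rising doses; IC50 fitted where one cell received multiple doses. Protocol: 50 ms pulses to +20 mV at 0.067 Hz from […] or −90 mV holding; P/n leak subtraction, no junction-potential correction; manual and PatchXpress recordings.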

[2] = molecular target: human α1H T-type channels (Homo sapiens, UniProt O95180); experiment: T-type calcium channel block, whole cell patch clamp, α1H; details: HEK cells stably expressing human α1H; mainly non-inactivated protocol; values above 10,000 nM represented as 10000
Procedure: (§1) T-type calcium channel blocking activity was assayed in human embryonic kidneycells, HEK 293 (Invitrogen), stably transfected with the T-type calcium channel subunits. Briefly, cells were cultured in Dulbecco's modified eagle medium (DMEM) supplemented with 10% fetal bovine serum, 200 U/ml penicillin, and 0.2 mg/mL streptomycin at 37° C. with 5% CO2. At 85% confluency, cells were split with 0.25% trypsin/1 mM EDTA and plated at 10% confluency on glass coverslips. At 12 hours, the medium was replaced, and the cells stably transfected using a standard calcium phosphate protocol and the appropriate calcium channel cDNA's. Fresh DMEM was supplied, and the cells transferred to 28° C./5% CO2.
(§2) Standard patch-clamp techniques were employed to identify blockers of T-type currents. Briefly, previously described HEK cell lines stably expressing human α1G, α1H, and α1I T-type channels were used for all the recordings (passage #: 4-20, 37° C., 5% CO2). Whole cell patch clamp experiments were performed using an Axopatch 200B amplifier (Axon Instruments, Burlingame, Calif.) linked to a personal computer equipped with pCLAMP software. Data were analyzed using Clampfit (Axon Instruments) and SigmaPlot 4.0 (Jandel Scientific). To obtain T-type currents, plastic dishes containing semi-confluent cells were positioned on the stage of a ZEISS AXIOVERT S100 microscope after replacing the culture medium with external solution (Table 2). Whole-cell patches were obtained using pipettes (borosilicate glass with filament, O.D.: 1.5 mm, I.D.: 0.86 mm, 10 cm length), fabricated on a SUTTER P-97 puller with resistance values of ˜5 MΩ (Table 3).
(§3) T-type currents were reliably obtained by using two voltage protocols: • “non-inactivating,” and • “inactivation.”
(§4) Test compounds were dissolved in external solution, 0.1-0.01% DMSO. After ˜10 minutes rest, they were applied by gravity close to the cell using a WPI microfil tubing. The “non-inactivated” pre-pulse was used to examine the resting block of a compound. The “inactivated” protocol was employed to study voltage-dependent block.

[3] = molecular target: human α1G T-type channels (Homo sapiens, UniProt O43497); experiment: T-type calcium channel block, whole cell patch clamp, α1G; details: HEK cells stably expressing human α1G; mainly non-inactivated protocol; values above 10,000 nM represented as 10000
Procedure: as §1, §2, §3, §4

Chain of N-type calcium channel subunits (α1B, α2δ, and β3a) (Q00975 whole entry): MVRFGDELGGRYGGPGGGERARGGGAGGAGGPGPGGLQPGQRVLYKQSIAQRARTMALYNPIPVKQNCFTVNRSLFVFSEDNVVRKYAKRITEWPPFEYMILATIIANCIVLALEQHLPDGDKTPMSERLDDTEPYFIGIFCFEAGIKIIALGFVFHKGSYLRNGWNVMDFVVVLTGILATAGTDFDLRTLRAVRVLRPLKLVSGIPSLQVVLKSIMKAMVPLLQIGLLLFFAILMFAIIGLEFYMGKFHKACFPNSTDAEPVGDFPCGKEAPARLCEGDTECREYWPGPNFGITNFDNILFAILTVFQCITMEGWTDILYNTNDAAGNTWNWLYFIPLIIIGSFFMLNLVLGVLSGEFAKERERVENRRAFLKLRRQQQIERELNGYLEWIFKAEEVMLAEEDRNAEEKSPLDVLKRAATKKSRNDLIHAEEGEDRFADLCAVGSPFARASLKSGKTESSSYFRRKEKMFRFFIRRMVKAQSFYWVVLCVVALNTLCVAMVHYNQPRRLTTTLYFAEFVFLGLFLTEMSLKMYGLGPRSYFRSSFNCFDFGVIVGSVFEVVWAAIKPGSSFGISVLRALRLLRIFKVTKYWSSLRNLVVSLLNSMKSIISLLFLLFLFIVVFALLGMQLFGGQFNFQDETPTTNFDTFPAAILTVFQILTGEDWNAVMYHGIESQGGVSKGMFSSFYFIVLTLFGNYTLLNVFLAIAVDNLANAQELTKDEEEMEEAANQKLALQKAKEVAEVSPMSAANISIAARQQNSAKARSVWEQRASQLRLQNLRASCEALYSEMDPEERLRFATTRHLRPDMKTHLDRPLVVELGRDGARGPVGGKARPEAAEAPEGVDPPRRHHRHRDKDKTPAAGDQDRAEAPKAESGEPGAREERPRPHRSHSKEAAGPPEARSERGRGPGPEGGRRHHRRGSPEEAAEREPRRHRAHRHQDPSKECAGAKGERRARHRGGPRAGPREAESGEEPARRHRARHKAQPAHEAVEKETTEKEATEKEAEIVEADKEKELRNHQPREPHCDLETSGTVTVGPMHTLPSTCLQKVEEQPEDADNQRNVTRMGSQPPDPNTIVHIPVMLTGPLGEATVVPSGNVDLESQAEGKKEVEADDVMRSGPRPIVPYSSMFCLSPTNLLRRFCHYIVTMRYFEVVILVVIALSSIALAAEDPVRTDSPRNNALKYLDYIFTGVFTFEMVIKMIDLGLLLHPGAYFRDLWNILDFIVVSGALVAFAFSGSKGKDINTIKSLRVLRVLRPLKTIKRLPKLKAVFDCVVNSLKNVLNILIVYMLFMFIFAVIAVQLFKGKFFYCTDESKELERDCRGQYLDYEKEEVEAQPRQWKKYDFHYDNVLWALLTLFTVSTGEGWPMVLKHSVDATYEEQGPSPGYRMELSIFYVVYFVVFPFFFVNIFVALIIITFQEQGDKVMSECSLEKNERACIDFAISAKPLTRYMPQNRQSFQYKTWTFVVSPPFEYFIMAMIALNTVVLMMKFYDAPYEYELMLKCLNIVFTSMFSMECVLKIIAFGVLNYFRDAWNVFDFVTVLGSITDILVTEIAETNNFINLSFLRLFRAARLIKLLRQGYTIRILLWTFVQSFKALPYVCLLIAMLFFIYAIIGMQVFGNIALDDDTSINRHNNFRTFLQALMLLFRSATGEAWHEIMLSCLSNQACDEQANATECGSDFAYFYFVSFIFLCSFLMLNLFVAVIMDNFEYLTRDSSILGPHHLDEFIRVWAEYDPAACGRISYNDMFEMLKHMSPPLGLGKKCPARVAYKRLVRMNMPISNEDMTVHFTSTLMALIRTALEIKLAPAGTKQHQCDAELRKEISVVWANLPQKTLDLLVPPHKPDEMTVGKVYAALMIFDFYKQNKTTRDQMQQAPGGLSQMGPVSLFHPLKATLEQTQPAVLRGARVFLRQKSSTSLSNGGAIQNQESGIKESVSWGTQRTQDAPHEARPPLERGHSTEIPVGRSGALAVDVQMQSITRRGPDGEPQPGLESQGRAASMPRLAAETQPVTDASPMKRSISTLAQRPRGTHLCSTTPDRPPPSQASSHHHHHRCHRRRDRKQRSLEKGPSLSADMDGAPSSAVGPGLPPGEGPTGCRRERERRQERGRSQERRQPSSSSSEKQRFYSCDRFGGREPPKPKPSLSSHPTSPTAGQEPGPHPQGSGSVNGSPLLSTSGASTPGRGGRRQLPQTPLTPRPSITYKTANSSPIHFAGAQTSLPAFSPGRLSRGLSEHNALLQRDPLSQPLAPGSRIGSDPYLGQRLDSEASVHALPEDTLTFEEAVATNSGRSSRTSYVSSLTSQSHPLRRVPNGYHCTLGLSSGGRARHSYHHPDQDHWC
Chain of N-type calcium channel subunits (α1B, α2δ, and β3a) (P54289 25-1103 partner): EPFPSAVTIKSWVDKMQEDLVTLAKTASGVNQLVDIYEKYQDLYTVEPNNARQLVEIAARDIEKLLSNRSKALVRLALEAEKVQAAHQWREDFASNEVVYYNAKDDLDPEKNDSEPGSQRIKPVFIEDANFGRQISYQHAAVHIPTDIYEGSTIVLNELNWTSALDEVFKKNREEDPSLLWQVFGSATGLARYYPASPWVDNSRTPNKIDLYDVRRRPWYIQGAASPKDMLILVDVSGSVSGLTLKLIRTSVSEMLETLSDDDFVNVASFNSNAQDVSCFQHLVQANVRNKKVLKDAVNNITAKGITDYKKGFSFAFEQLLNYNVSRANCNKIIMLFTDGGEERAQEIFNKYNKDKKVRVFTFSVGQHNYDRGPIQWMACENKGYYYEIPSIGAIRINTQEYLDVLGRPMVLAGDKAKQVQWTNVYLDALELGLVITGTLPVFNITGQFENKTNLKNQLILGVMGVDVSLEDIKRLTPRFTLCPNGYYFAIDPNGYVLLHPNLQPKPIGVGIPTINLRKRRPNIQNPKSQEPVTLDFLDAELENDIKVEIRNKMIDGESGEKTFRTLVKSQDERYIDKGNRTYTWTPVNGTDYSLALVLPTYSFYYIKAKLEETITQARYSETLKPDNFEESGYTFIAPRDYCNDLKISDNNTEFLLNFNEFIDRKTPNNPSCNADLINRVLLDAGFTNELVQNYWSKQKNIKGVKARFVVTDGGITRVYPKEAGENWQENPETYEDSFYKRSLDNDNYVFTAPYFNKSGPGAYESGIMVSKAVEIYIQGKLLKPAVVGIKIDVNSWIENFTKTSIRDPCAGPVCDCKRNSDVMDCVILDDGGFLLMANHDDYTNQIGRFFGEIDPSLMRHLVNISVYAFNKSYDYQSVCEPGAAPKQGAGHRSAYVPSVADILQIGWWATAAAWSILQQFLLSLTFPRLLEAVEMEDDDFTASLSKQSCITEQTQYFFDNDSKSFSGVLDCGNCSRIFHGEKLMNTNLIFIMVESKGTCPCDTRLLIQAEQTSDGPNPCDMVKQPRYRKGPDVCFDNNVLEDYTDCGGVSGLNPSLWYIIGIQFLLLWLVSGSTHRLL
Chain of N-type calcium channel subunits (α1B, α2δ, and β3a) (P54284 whole entry partner): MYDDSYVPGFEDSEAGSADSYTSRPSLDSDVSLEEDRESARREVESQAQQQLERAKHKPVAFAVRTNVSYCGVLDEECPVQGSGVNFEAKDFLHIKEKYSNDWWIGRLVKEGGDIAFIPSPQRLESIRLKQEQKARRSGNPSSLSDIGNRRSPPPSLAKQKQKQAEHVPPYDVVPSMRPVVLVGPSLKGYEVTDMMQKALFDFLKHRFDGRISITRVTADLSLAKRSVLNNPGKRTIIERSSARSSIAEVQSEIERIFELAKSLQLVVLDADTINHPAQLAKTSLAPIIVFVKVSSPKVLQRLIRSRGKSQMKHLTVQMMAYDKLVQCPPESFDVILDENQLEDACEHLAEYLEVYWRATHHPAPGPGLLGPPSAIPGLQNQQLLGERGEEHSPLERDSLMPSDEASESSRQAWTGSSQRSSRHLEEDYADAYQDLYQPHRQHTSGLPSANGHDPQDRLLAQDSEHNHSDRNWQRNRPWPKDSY

Molecule	IC50 [1]	IC50 [2]	IC50 [3]
6-fluoro-N-((1R,4R)-4-((3- (trifluoromethyl)phenylsulfonyl) methyl)cyclohexyl)-1H- benzo[d]imidazole-2-carboxamide [Compound 110]	6020 nM	> 10000 nM	–
CC1(S(=O)(=O)c2cccc(C(F)(F)F)c2)CCC(NC(=O)CCC(F)(F)F)CC1 (centres unmarked) [Compound 5, 4,4,4-trifluoro-N-(4-methyl-4-(3-(trifluoromethyl)phenylsulfonyl)cyclohexyl)butanamide]	380 nM	> 10000 nM	–
CC(C)(C)NC(=O)CNC[C@H]1CC[C@@H](S(=O)(=O)c2cccc(C(F)(F)F)c2)CC1 [Compound 35, N-tert-butyl-2-(((1S,4S)-4-(3-(trifluoromethyl)phenylsulfonyl)cyclohexyl)methylamino)acetamide]	–	> 10000 nM	–
COc1cc(F)cc(C(=O)N[C@H]2CC[C@@H](S(=O)(=O)c3cccc(C(F)(F)F)c3)CC2)c1 [Compound 39, 3-fluoro-5-methoxy-N-((1S,4S)-4-(3-(trifluoromethyl)phenylsulfonyl)cyclohexyl)benzamide]	410 nM	> 10000 nM	–
Cn1cc(C(=O)N[C@H]2CC[C@@H](S(=O)(=O)c3cccc(C(F)(F)F)c3)CC2)c(C(F)(F)F)n1 [Compound 45, 1-methyl-3-(trifluoromethyl)-N-((1S,4S)-4-(3-(trifluoromethyl)phenylsulfonyl)cyclohexyl)-1H-pyrazole-4-carboxamide]	1290 nM	> 10000 nM	–
CC1(CNC(=O)c2ccc(F)c(Cl)c2)CCC(F)(S(=O)(=O)c2cccc(C(F)(F)F)c2)CC1 (centres unmarked) [Compound 153, 3-chloro-4-fluoro-N-((4-fluoro-1-methyl-4-(3-(trifluoromethyl)phenylsulfonyl)cyclohexyl)methyl)benzamide]	500 nM	–	5230 nM
CC1(CNC(=O)c2cc(F)cc(Cl)c2)CCC(F)(S(=O)(=O)c2cccc(C(F)(F)F)c2)CC1 (centres unmarked) [Compound 154, 3-chloro-5-fluoro-N-((4-fluoro-1-methyl-4-(3-(trifluoromethyl)phenylsulfonyl)cyclohexyl)methyl)benzamide]	450 nM	–	3600 nM
CN(CC(=O)N[C@H]1CC[C@H](CS(=O)(=O)c2cccc(C(F)(F)F)c2)CC1)C1CCCCC1 [Compound 163]	470 nM	–	> 10000 nM
O=C(NC[C@]1(O)CC[C@@H](S(=O)(=O)c2cccc(C(F)(F)F)c2)CC1)c1cc(F)cc(Cl)c1 [Compound 228, 3-chloro-5-fluoro-N-(((1S,4S)-1-hydroxy-4-(3-(trifluoromethyl)phenylsulfonyl)cyclohexyl)methyl)benzamide]	740 nM	–	330 nM
O=C(NC[C@]1(O)CC[C@@H](S(=O)(=O)c2cccc(C(F)(F)F)c2)CC1)c1ccc(F)c(C(F)(F)F)c1 [Compound 234, 4-fluoro-N-(((1S,4S)-1-hydroxy-4-(3-(trifluoromethyl)phenylsulfonyl)cyclohexyl)methyl)-3-(trifluoromethyl)benzamide]	870 nM	–	2120 nM
COc1cc(C(=O)N[C@H]2CC[C@@](F)(S(=O)(=O)c3cccc(C(F)(F)F)c3)CC2)cc(Cl)n1 [Compound 242, 2-chloro-N-((1S,4S)-4-fluoro-4-(3-(trifluoromethyl)phenylsulfonyl)cyclohexyl)-6-methoxyisonicotinamide]	110 nM	–	4300 nM
CC(C)(C)NC(=O)CNC[C@H]1C[C@H](S(=O)(=O)c2cccc(C(F)(F)F)c2)C1 [Compound 359, N-tert-butyl-2-(((1R,3R)-3-(3-(trifluoromethyl)phenylsulfonyl)cyclobutyl)methylamino)acetamide]	1610 nM	–	5420 nM
O=C(Nc1ccc(Oc2ccc(F)cc2)nc1)[C@H]1C[C@H](S(=O)(=O)c2cccc(C(F)(F)F)c2)C1 [Compound 405, (1R,3R)-N-(6-(4-fluorophenoxy)pyridin-3-yl)-3-(3-(trifluoromethyl)phenylsulfonyl)cyclobutane carboxamide]	1300 nM	–	> 10000 nM
O=S(=O)(NC[C@H]1C[C@H](S(=O)(=O)c2cccc(C(F)(F)F)c2)C1)c1ccccc1C(F)(F)F [Compound 426, 2-(trifluoromethyl)-N-(((1R,3R)-3-(3-(trifluoromethyl)phenylsulfonyl)cyclobutyl)methyl)benzenesulfonamide]	1140 nM	–	> 10000 nM
CC(C)(CCNC(=O)c1ccc(F)c(C(F)(F)F)c1)S(=O)(=O)c1cccc(C(F)(F)F)c1 [Compound 466, 4-fluoro-N-(3-methyl-3-(3-(trifluoromethyl)phenylsulfonyl)butyl)-3-(trifluoromethyl)benzamide]	–	550 nM	–

Continued, values first:

IC50 [1]	IC50 [2]	IC50 [3]	Molecule
640 nM	> 10000 nM	–	CC1(S(=O)(=O)c2cccc(C(F)(F)F)c2)CCC(NC(=O)c2ccc(C(F)(F)F)cn2)CC1 (centres unmarked) [Compound 3, N-(4-methyl-4-(3-(trifluoromethyl)phenylsulfonyl)cyclohexyl)-5-(trifluoromethyl) picolinamide]
540 nM	–	960 nM	CC1(CNC(=O)c2ccc(C(F)(F)F)cc2S(C)(=O)=O)CCC(F)(S(=O)(=O)c2cccc(C(F)(F)F)c2)CC1 (centres unmarked) [Compound 155, N-((4-fluoro-1-methyl-4-(3-(trifluoromethyl)phenylsulfonyl)cyclohexyl)methyl)-2-(methylsulfonyl)-4-(trifluoromethyl)benzamide]
620 nM	–	940 nM	CC1(CNC(=O)c2ccc(C(F)(F)F)nc2)CCC(S(=O)(=O)c2cccc(C(F)(F)F)c2)CC1 (centres unmarked) [Compound 213, N-((1-methyl-4-(3-(trifluoromethyl)phenylsulfonyl)cyclohexyl)methyl)-6-(trifluoromethyl)nicotinamide]
90 nM	–	2780 nM	O=C(N[C@H]1CC[C@@](F)(S(=O)(=O)c2cccc(C(F)(F)F)c2)CC1)c1ccc(F)c(Cl)c1 [Compound 238, 3-chloro-4-fluoro-N-((1S,4S)-4-fluoro-4-(3-(trifluoromethyl)phenylsulfonyl)cyclohexyl)benzamide]
340 nM	–	1610 nM	CS(=O)(=O)c1cc(C(F)(F)F)ccc1C(=O)N[C@H]1CC[C@@](F)(S(=O)(=O)c2cccc(C(F)(F)F)c2)CC1 [Compound 239, N-((1S,4S)-4-fluoro-4-(3-(trifluoromethyl)phenylsulfonyl)cyclohexyl)-2-(methylsulfonyl)-4-(trifluoromethyl)benzamide]
130 nM	–	1450 nM	Cn1nc(C(F)(F)F)cc1C(=O)N[C@H]1CC[C@@](F)(S(=O)(=O)c2cccc(C(F)(F)F)c2)CC1 [Compound 241, N-((1S,4S)-4-fluoro-4-(3-(trifluoromethyl)phenylsulfonyl)cyclohexyl)-1-methyl-3-(trifluoromethyl)-1H-pyrazole-5-carboxamide]
60 nM	–	4450 nM	Cc1cc(C(=O)N[C@H]2CC[C@@](F)(S(=O)(=O)c3cccc(C(F)(F)F)c3)CC2)c(C(F)(F)F)o1 [Compound 243]
40 nM	–	3570 nM	CC(C)(C)S(=O)(=O)c1ccsc1C(=O)N[C@H]1CC[C@@](F)(S(=O)(=O)c2cccc(C(F)(F)F)c2)CC1 [Compound 244, 3-(tert-butylsulfonyl)-N-((1S,4S)-4-fluoro-4-(3-(trifluoromethyl)phenylsulfonyl)cyclohexyl)thiophene-2-carboxamide]
130 nM	–	3810 nM	O=C(N[C@H]1CC[C@@](F)(S(=O)(=O)c2cccc(C(F)(F)F)c2)CC1)c1ccnn1CC(F)(F)F [Compound 245, N-((1S,4S)-4-fluoro-4-(3-(trifluoromethyl)phenylsulfonyl)cyclohexyl)-1-(2,2,2-trifluoroethyl)-1H-pyrazole-5-carboxamide]
130 nM	–	1720 nM	O=C(N[C@H]1CC[C@@](F)(S(=O)(=O)c2cccc(C(F)(F)F)c2)CC1)c1ccnc(C(F)(F)F)c1 [Compound 246]
530 nM	–	> 10000 nM	O=S(=O)(N[C@H]1CC[C@@](F)(S(=O)(=O)c2cccc(C(F)(F)F)c2)CC1)c1ccc(C(F)(F)F)cc1 [Compound 301, N-((1S,4S)-4-fluoro-4-(3-(trifluoromethyl)phenylsulfonyl)cyclohexyl)-4-(trifluoromethyl) benzenesulfonamide]
